{"source": "patent US20230158157A1", "about": "“POTENT AND SELECTIVE DEGRADERS OF ALK” (DANA-FARBER CANCER INSTITUTE, INC., priority 2020, published 2023)", "assay_type_in_all_cases": "cell-based", "key": {"EML4-ALK": {"target": "T1, EML4-ALK (Homo sapiens, UniProt Q9UM73)", "T1 construct": "endogenous in cells; host or cells: H3122 (NSCLC), single-cell clone after CRISPR knock-in of HiBit; the other entry of the earlier key: EML4 (Q9HC35, Echinoderm microtubule-associated protein-like 4)", "T1 sequence (Q9UM73 with tags, fused parts or gaps)": "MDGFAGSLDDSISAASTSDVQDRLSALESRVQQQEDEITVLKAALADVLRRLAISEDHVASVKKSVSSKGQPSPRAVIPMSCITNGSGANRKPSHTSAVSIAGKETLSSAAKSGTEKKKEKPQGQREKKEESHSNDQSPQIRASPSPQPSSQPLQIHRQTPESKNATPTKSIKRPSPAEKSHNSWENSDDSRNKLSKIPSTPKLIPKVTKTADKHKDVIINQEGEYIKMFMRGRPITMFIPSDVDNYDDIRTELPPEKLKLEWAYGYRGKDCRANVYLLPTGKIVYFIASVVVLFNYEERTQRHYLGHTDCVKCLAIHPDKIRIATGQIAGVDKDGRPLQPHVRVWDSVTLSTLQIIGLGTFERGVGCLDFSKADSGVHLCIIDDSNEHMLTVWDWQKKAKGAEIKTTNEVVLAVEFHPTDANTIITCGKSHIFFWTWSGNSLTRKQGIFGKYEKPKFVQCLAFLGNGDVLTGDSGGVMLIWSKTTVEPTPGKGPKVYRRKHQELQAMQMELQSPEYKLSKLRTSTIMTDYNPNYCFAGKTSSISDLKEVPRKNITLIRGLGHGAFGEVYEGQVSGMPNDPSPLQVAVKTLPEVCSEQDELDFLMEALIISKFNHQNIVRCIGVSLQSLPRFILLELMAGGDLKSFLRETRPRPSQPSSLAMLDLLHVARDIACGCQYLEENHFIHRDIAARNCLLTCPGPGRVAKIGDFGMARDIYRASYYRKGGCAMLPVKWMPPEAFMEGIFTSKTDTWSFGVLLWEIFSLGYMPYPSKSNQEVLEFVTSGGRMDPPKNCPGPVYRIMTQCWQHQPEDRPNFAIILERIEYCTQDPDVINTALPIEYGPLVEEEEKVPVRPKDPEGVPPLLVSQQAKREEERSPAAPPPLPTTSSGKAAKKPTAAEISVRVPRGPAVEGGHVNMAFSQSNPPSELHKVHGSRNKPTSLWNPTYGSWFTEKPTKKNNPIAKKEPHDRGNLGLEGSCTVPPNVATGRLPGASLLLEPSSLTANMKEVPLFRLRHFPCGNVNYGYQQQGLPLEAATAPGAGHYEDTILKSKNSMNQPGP", "assay": "EML4-ALK HiBit degradation assay in CRISPR-tagged H3122 cells (Nano-Glo HiBit Lytic Detection)", "details": "Table 3, H3122 cells, 16 hours; for Dmax: NCI-H3122, read-out: ALK Degradation (H3122 cells) Dmax; for DC50: read-out: ALK Degradation (H3122 cells) DC50"}, "H3122 cells": {"tested_on": "H3122 cells", "assay": "CTG", "details": "Table 3, read-out: CTG IC50"}, "WT EML4-ALK V3": {"target": "T2, WT EML4-ALK V3 (Homo sapiens, UniProt Q9UM73)", "T2 construct": "expressed in transfected cells; host or cells: Ba/F3; the other entry of the earlier key: EML4 (Q9HC35, Echinoderm microtubule-associated protein-like 4)", "T2 sequence (Q9UM73 1058-1620 limits assumed)": "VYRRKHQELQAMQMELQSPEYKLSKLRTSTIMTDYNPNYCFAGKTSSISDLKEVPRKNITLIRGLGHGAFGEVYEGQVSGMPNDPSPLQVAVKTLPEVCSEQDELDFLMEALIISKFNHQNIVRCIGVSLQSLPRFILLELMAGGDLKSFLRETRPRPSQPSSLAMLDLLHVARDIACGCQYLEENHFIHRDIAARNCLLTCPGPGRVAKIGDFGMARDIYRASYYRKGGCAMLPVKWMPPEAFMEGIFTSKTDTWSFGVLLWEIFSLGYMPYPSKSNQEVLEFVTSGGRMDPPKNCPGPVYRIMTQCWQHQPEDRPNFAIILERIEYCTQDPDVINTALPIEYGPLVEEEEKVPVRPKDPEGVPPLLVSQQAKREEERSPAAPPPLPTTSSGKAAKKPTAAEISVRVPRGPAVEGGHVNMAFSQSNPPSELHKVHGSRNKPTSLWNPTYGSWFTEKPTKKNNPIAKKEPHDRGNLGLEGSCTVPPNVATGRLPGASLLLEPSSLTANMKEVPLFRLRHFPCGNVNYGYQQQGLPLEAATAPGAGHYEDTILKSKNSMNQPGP", "assay": "Western blot of pALK Tyr1507, ALK and tubulin in WT EML4-ALK V3 Ba/F3 cells", "procedure": "(§1) Cells treated with DMSO, compound 96, negative control of 96 or Loratinib at indicated concentrations (nM).\n(§2) The cells were collected and washed with PBS buffer. Cell lysates were prepared by using NP40 lysis buffer (Invitrogen™) supplemented with complete protease inhibitor cocktail (Roche), PhosSTOP™ phosphatase inhibitor cocktail (Roche) and PMSF (1 mM). The lysates were cleared by centrifugation and resolved using Bolt™ 4-12% Bis-Tris plus gels and Western blotted to detect proteins of interest. Antibodies to phospho-ALK^Tyr1507 and tubulin (#14678S and #3873, Cell Signaling Technologies®) were used according to the manufacturers' instructions. For Western Blot visualization, Odyssey® Clx (Li-cor) was utilized."}, "FAK": {"target": "T3, FAK (Homo sapiens, UniProt Q05397)", "T3 construct": "FAK Degradation; endogenous in cells; host or cells: H3122", "assay": "FAK degradation (H3122 cells)", "details": "for Dmax: NCI-H3122, Table 3"}, "G1202R EML4-ALK V3": {"target": "T4, G1202R EML4-ALK V3 (Homo sapiens, UniProt Q9UM73, G1202R)", "T4 construct": "expressed in transfected cells; host or cells: Ba/F3; the other entry of the earlier key: EML4 (Q9HC35, Echinoderm microtubule-associated protein-like 4)", "T4 sequence (Q9UM73 1058-1620 G1202R limits assumed)": "as the sequence (Q9UM73 1058-1620 limits assumed) above, with G145R counted along it", "assay": "Western blot of pALK Tyr1507, ALK and tubulin in G1202R EML4-ALK V3 Ba/F3 cells", "procedure": "as §1, §2"}, "[1]": {"details": "compared to Alectinib and Lorlatinib"}}, "note": "Read-outs that look alike come from different tables or passages of the source.", "data": [{"smiles": "COc1cc(C2CCN(CCCC#Cc3cccc4c3CN(C3CCC(=O)NC3=O)C4=O)CC2)c(C)cc1Nc1ncc(Cl)c(Nc2ccccc2S(=O)(=O)C(C)C)n1", "note": "(stereo not drawn) [compound 96, 3-(4-(5-(4-(4-((5-chloro-4-((2-(isopropylsulfonyl)phenyl)amino)pyrimidin-2-yl)amino)-5-methoxy-2-methylphenyl)piperidin-1-yl)pent-1-yn-1-yl)-1-oxoisoindolin-2-yl)piperidine-2,6-dione]", "values": [{"measurement": "Dmax", "setting": "EML4-ALK", "value": 79, "unit": "%"}, {"measurement": "DC50", "setting": "EML4-ALK", "value": 3, "unit": "nM"}, {"measurement": "IC50", "setting": "H3122 cells; Homo sapiens, NCI-H3122", "value": 12, "unit": "nM"}, {"measurement": "ALK degradation by Western blot", "setting": "WT EML4-ALK V3; FIG. 1A, 1C", "value": "potent degrader"}, {"measurement": "pALK inhibition by Western blot", "setting": "WT EML4-ALK V3; [1]", "value": "significantly improved pALK inhibition compared to Alectinib and Lorlatinib"}, {"measurement": "Dmax", "setting": "FAK", "value": 92, "unit": "%"}, {"measurement": "DC50", "setting": "FAK; Table 3", "value": 2, "unit": "nM"}, {"measurement": "ALK degradation by Western blot", "setting": "G1202R EML4-ALK V3; FIG. 1B, 1D", "value": "potent degrader"}, {"measurement": "pALK inhibition by Western blot", "setting": "G1202R EML4-ALK V3; [1]", "value": "significantly improved pALK inhibition compared to Alectinib and Lorlatinib"}]}, {"smiles": "COc1cc(C2CCN(CCCCCC#Cc3cccc4c3C(=O)N(C3CCC(=O)NC3=O)C4=O)CC2)c(C)cc1Nc1ncc(Cl)c(Nc2ccccc2S(=O)(=O)C(C)C)n1", "note": "(stereo not drawn) [compound 93, 4-(7-(4-(4-((5-chloro-4-((2-(isopropylsulfonyl)phenyl)amino)pyrimidin-2-yl)amino)-5-methoxy-2-methylphenyl)piperidin-1-yl)hept-1-yn-1-yl)-2-(2,6-dioxopiperidin-3-yl)isoindoline-1,3-dione]", "values": [{"measurement": "Dmax", "setting": "EML4-ALK", "value": 82, "unit": "%"}, {"measurement": "DC50", "setting": "EML4-ALK", "value": 49, "unit": "nM"}, {"measurement": "IC50", "setting": "H3122 cells; Homo sapiens, NCI-H3122", "value": 202, "unit": "nM"}, {"measurement": "Dmax", "setting": "FAK", "value": 89, "unit": "%"}, {"measurement": "DC50", "setting": "FAK; Table 3", "value": 24, "unit": "nM"}]}, {"smiles": "COc1cc(C2CCN(CCCCC#Cc3cccc4c3CN(C3CCC(=O)NC3=O)C4=O)CC2)c(C)cc1Nc1ncc(Cl)c(Nc2ccccc2S(=O)(=O)C(C)C)n1", "note": "(stereo not drawn) [compound 95, 3-(4-(6-(4-(4-((5-chloro-4-((2-(isopropylsulfonyl)phenyl)amino)pyrimidin-2-yl)amino)-5-methoxy-2-methylphenyl)piperidin-1-yl)hex-1-yn-1-yl)-1-oxoisoindolin-2-yl)piperidine-2,6-dione]", "values": [{"measurement": "Dmax", "setting": "EML4-ALK", "value": 73, "unit": "%"}, {"measurement": "DC50", "setting": "EML4-ALK", "value": 1, "unit": "nM"}, {"measurement": "IC50", "setting": "H3122 cells; Homo sapiens, NCI-H3122", "value": 4, "unit": "nM"}, {"measurement": "Dmax", "setting": "FAK", "value": 89, "unit": "%"}, {"measurement": "DC50", "setting": "FAK; Table 3", "value": 1, "unit": "nM"}]}, {"smiles": "COc1cc(CCNCCCCCC#Cc2ccc3c(c2)CN(C2CCC(=O)NC2=O)C3=O)c(C)cc1Nc1ncc(Cl)c(Nc2ccccc2S(=O)(=O)C(C)C)n1", "note": "(stereo not drawn) [compound 92]", "values": [{"measurement": "IC50", "setting": "H3122 cells; Homo sapiens, NCI-H3122", "value": 50, "unit": "nM"}, {"measurement": "Dmax", "setting": "FAK", "value": 93, "unit": "%"}, {"measurement": "DC50", "setting": "FAK; Table 3", "value": 4, "unit": "nM"}]}, {"smiles": "COc1cc(N2CCC(NC(=O)CCCCCCCCCC(=O)N[C@H](C(=O)N3C[C@H](O)C[C@H]3C(=O)NCc3ccc(-c4scnc4C)cc3)C(C)(C)C)CC2)ccc1Nc1ncc(Cl)c(Nc2ccccc2P(C)(C)=O)n1", "note": "[SIAIS117]", "values": [{"measurement": "ALK Degradation (H3122 cells) Dmax", "setting": "EML4-ALK", "value": 43, "unit": "%"}, {"measurement": "DC50", "setting": "EML4-ALK", "value": 9, "unit": "nM"}, {"measurement": "IC50", "setting": "H3122 cells", "value": 42, "unit": "nM"}, {"measurement": "DC50", "setting": "FAK; Table 3", "value": 10, "unit": "nM"}, {"measurement": "FAK Degradation (H3122 cells) Dmax", "setting": "FAK; Table 3", "value": 70, "unit": "%"}]}]}
